# Laboratory results from US20130184272A1, “DIABETES THERAPEUTIC AGENT” (TAKEDA PHARMACEUTICAL COMPANY LIMITED, priority 2010, published 2013).
# Marks after values point to notes of the source that are not given here.
# Test system: Female KKA^y mice
# Test: Improvement of insulin resistance in KKA^y mouse (plasma glucose AUC after insulin)
# Assay type: in vivo
# Details: 4 weeks, insulin 0.5 U/kg i.p.
# Description: Female KKA^y mice (12-week-old, CLEA Japan, Inc.) were bred while allowing free ingestion of both feed and water. The mice were bred for acclimation with powder CE-2 (CLEA Japan, Inc.) from 2 weeks before administration of the compound. The body weight and plasma markers were measured and, at 14 weeks of age, they were divided into 4 groups (6 per group) such that the measured values were uniform. The compound of Reference Example 1 was administered for 4 weeks in a mixed feed (0.01-0.09 mg/kg/day). After fasting overnight, insulin was intraperitoneally administered at 0.5 U/kg and, after 30, 60 and 120 min, blood samples were collected.
smiles,measurement,setting,value
"Cc1ncccc1Oc1sc(C(N)=O)c2c1-c1c(cnn1C)CC2 [Ref. Ex. 1, 1-methyl-8-[(2-methylpyridin-3-yl)oxy]-4,5-dihydro-1H-thieno[3,4-g]indazole-6-carboxamide]",glucose AUC0-120 min,0.01 mg/kg/day in mixed feed,241.0 mg·h/dL
same,glucose AUC0-120 min (mg h/dL),0.03 mg/kg/day in mixed feed,184.7* mg h/dL
same,glucose AUC0-120 min (mg h/dL),0.09 mg/kg/day in mixed feed,182.5* mg h/dL
